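Cultured in 96-well plates, cells were exposed to test compound for 48 hours across five concentrations. GI50 marks 50% less growth. The concentration for full growth arrest is given as TGI.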
What was measured:
Assay in all cases: DTP human tumour cell line panel, 48 h
[1] = test system: BT-549 breast
[2] = test system: MCF7 breast
[3] = test system: TK-10 renal
[4] = test system: OVCAR-3 ovarian
[5] = test system: SF-268 CNS
[6] = test system: HOP-92 NSCLC
[7] = test system: HS 578T breast
[8] = test system: SR leukemia
[9] = test system: NCI-H522 lung
[10] = test system: NCI-H460 lung

| SMILES | GI50 [1] | TGI [1] | GI50 [2] | TGI [2] | GI50 [3] | TGI [3] | GI50 [4] | TGI [4] | GI50 [5] | TGI [5] | GI50 [6] | TGI [6] | GI50 [7] | TGI [7] | GI50 [8] | TGI [8] | GI50 [9] | TGI [9] | GI50 [10] | TGI [10] |
| --- | --- | --- | --- | --- | --- | --- | --- | --- | --- | --- | --- | --- | --- | --- | --- | --- | --- | --- | --- | --- |
| O=C(Nc1ccc(I)cc1F)c1cc(Br)ccc1O | 370 nM | 1.76 µM | 780 nM | 7.76 µM | 1620 nM | 9.3 µM | 457 nM | 11.3 µM | 498 nM | 8.07 µM | 162 nM | 0.516 µM | 346 nM | 2.62 µM | 564 nM | > 100 µM | 348 nM | 4.44 µM | 452 nM | 8.05 µM |
| CCCCCSc1ccc2nc(NC(=O)OCC)sc2c1 | 487 nM | > 100 µM | 300 nM | > 100 µM | 2250 nM | 52.8 µM | 346 nM | 2.14 µM | 866 nM | > 100 µM | 1440 nM | 67.8 µM | 944 nM | > 100 µM | 274 nM | > 100 µM | 245 nM | 0.865 µM | 523 nM | > 100 µM |
| Cc1ccc(-c2cc(C(=O)Nc3ccc(S(=O)(=O)N4CCCCC4)cc3)[nH]n2)c(O)c1 | > 100000 nM | > 100 µM | > 100000 nM | > 100 µM | > 100000 nM | > 100 µM | > 100000 nM | > 100 µM | > 100000 nM | > 100 µM | > 100000 nM | > 100 µM | > 100000 nM | > 100 µM | 22300 nM | > 100 µM | > 100000 nM | > 100 µM | > 100000 nM | > 100 µM |

Reference: PubChem BioAssay (NCI)
